Where “and” joins values, the source holds several entries; their conditions need not be identical. Equal values may be shown once. Read-outs that look alike come from different tables or passages of the source.
Assays:
[1] = test system: MLKL^−/− HT29 cells expressing MLKL-FKBP^F36V; format: cell-based; settings: for Live cells (%PI negative) after TNF+911+zVAD: MLKL-/- + MLKL FKBPF36V, independent experiments
Protocol: (§1) Cell death was assessed by flow cytometric analysis of PI exclusion. […] Cell death was assessed by flow cytometric analysis of PI exclusion. […] Cell death was assessed by flow cytometric analysis of PI exclusion. e N = 4, f N = 3 independent experiments (symbols), EB represent mean ± SD. g Western from MLKL^−/−CASP8^−/− HT29 cells stably expressing the doxycycline-inducible C-terminal fusion protein, MLKL-NanoLuc (MLKL-NLuc) and constitutively expressing the C-terminal fusion protein caspase-8-FKBP^F36V. […] Cell death was assessed using an IncuCyte and Cytotox-Red uptake. N = 3 independent experiments, one representative experiment shown, EB represent mean ± SD.

wild-type HT29 cells = experiment: Necroptosis assay (PI exclusion, flow cytometry), wild-type HT29 cells, TNF+SM+IDN; format: cell-based, human; settings: sheet S5H
Protocol: To simulate necroptosis, cells were seeded into 96-well plates ±40 ng/mL doxycycline, to induce construct expression, and treated with 100 ng/mL FLAG-TNF (recombinant human, in-house), 500 nM compound A Smac mimetic (kindly gifted by TetraLogics Pharmaceuticals) and 5 μM IDN-6556 (Cayman) or 10 uM Z-VAD-fmk (Selleckchem) overnight (16–24 h). Degrader compounds or a DMSO vehicle control were added for 5 h, as stated in the Fig. legends. Cells were detached using Trypsin-EDTA (Merck) and resuspended in cell supernatants containing 10 μg/mL propidium iodide (PI). PI exclusion analysis was performed using an LSR II flow cytometer (Becton Dickinson, NJ) with 10,000 single-cell events per sample. Flow cytometry data were analysed using WEASEL version 2.7 software (Frank Battye).
Supplementary Figure 5. […]
NC4. Data are representative of N = 3 independent experiments. f-h. HT29 cells were stimulated with DMSO (control) or 500 nM of degrader for 5 hours before the addition of TNF (100 ng/mL) + Smac mimetic (compound A; 500 nM-1 µM) + caspase inhibitor; Emricasan (IDN) (5 µM), for 24 hours. Cell death was assessed by flow cytometric analysis of PI exclusion. N = 3 replicates (symbols) is shown, EB; mean ± SD. Data are representative of N = 3 independent experiments. i. Representative flow cytometry gating strategy. Source data are provided as a Source Data file.

murine MLKL-FKBP^F36V = target: T1, murine MLKL-FKBP^F36V (Homo sapiens, UniProt P62942, F37V); format: cell-based; settings: 31.2-500 nM, 5 h
T1 construct: expressed in transfected cells; host or cells: Mlkl-/- mouse dermal fibroblasts, doxycycline-inducible
T1 sequence (P62942 whole entry F37V): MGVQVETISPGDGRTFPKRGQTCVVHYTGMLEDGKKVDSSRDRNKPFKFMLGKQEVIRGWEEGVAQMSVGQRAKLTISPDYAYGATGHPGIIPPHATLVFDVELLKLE
Protocol: All timepoint experiments were performed as reverse timepoints in order to harvest all cells at the same time. At the indicated time points cells were lysed in NuPAGE LDS lysis buffer (Invitrogen) diluted to 1× in DISC lysis buffer (20 mM Tris-HCl pH7.5, 150 mM NaCl, 2 mM EDTA pH 8.0, 1% Triton X-100, 10% glycerol, H20)) supplemented with β-Mercaptoethanol (2%), protease and phosphatase inhibitors. Lysates were run through polypropylene columns (Pierce) to shred DNA. […] Membranes were blocked in 5% skim milk (Devondale) in TBS-T (TBS, 0.1% Tween-20) for 1 h prior to immunoblotting with primary antibodies overnight at 4 °C. Unless stated otherwise, all primary antibodies were diluted in TBS-T (TBS, 0.1% Tween-20) containing 5% BSA (Sigma A8022) and 0.04% sodium azide: HaloTag (1:1000, Promega; G9211), NanoLuc (1:500, Promega; N7000), β-actin (1:20,000, Sigma; A-1798), MLKL (1:1000, produced in-house; 3H1 clone)[39], FKBP (1:1000, R&D systems; 422513), caspase-8 (1:1000, Proteintech; 13423-1-AP), Histone H3 (1:1000, Abcam; ab10799), Cadherin (1:1000, Cell Signalling Technologies; 4068 T). Membranes were washed 3 × 5–10 min in TBS-T (TBS, 0.1% Tween-20) prior to the addition of the appropriate secondary antibodies conjugated with horseradish peroxidase (Jaxon laboratories). […]

[2] = target: T2, Halo-EGFP-NanoLuc-FKBP^F36V (H-E-N-F) fusion protein (UniProt P0A3G2+P62942+Q9GV45, A155T/A167V/A172T/A224E/A31E/A60N/A81I/C128F/C176G/D78G/E160K/E257K/F37V/F95D/H272N/I117V/K175M/K195N/K70R/L47V/L54V/L88M/L99Q/M102K/N193R/N227D/P142E/P291S/Q151K/Q38R/Q45L/S2A/S58T/T264A/V71I/Y165I/Y273L/Y87F); format: cell-based; settings: for Blank corrected (470-80) luminescence / Blank corrected Raw Data (470-80): +dox; for Blank corrected (470-80) luminescence: single well replicates; for Blank corrected (470-80): sheet S3B; for Blank corrected (470-80) / Blank corrected Raw Data (470-80): replicate wells; for Blank corrected Raw Data (470-80): PROTAC 500nM
Target sequence in this assay (Q9GV45 other isoform, or with tags, fused parts or gaps with the stated changes): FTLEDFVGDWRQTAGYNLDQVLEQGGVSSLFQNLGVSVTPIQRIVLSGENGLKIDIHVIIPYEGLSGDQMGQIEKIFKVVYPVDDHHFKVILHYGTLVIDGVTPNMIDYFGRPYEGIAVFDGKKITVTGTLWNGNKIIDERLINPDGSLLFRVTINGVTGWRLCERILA
Target sequence in this assay (P0A3G2 other isoform, or with tags, fused parts or gaps with the stated changes): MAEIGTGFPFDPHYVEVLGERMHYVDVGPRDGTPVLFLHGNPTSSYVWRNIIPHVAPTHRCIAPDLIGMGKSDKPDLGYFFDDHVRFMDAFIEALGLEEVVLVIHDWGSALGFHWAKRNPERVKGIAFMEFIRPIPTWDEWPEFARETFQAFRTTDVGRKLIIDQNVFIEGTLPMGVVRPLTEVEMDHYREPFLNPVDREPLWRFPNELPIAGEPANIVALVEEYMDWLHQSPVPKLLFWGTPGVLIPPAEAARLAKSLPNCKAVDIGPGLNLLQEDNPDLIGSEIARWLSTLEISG
Target sequence in this assay (P62942 whole entry F37V, the tested form may be a part): as the sequence (P62942 whole entry F37V) above

[3] = test system: MLKL^−/− HT29 cells expressing untagged MLKL; format: cell-based; settings: for Live cells (%PI negative) after TNF+911+zVAD: independent experiments
Protocol: as §1

Fibrillarin-FKBP^F36V = target: T3, Fibrillarin-FKBP^F36V (Homo sapiens, UniProt P62942, F37V); format: cell-based; settings: 500 nM, 10 h
T3 construct: endogenous in cells; host or cells: 293T, CRISPR/PITCh knock-in at the FBL locus
T3 sequence (P62942 whole entry F37V): as above

[4] = target: T2, Halo-EGFP-NanoLuc-FKBP^F36V (H-E-N-F) fusion protein; format: cell-based; parameters: expressed in transfected cells; host or cells: immortalized mouse dermal fibroblasts (iMDFs), ubiquitin promoter, constitutive; settings: 500 nM; for time up to which degradation was maintained, degrader removed at 5 h: 24 or 48 h after removal
Target sequence in this assay (P0A3G2 other isoform, or with tags, fused parts or gaps with the stated changes): as the sequence (P0A3G2 other isoform, or with tags, fused parts or gaps with the stated changes) above
Target sequence in this assay (Q9GV45 other isoform, or with tags, fused parts or gaps with the stated changes): as the sequence (Q9GV45 other isoform, or with tags, fused parts or gaps with the stated changes) above
Target sequence in this assay (P62942 whole entry F37V, the tested form may be a part): as the sequence (P62942 whole entry F37V) above

[5] = test system: MLKL^−/− HT29 cells expressing MLKL-Halo; format: cell-based
Protocol: as §1

Fibrillarin-Halo = target: T4, Fibrillarin-Halo (Rhodococcus rhodochrous, UniProt P0A3G2, A155T/A167V/A172T/A224E/C128F/C176G/D78G/E160K/E257K/H272N/K175M/K195N/L47V/L88M/N227D/P291S/S2A/S58T/T264A/Y273L/Y87F); format: cell-based; settings: 500 nM, 10 h
T4 construct: endogenous in cells; host or cells: 293T, CRISPR/PITCh knock-in at the FBL locus
T4 sequence (P0A3G2 other isoform, or with tags, fused parts or gaps with the stated changes): as the sequence (P0A3G2 other isoform, or with tags, fused parts or gaps with the stated changes) above

[6] = cited from earlier work

## CC[C@H](C(=O)N1CCCC[C@H]1C(=O)O[C@H](CCc1ccc(OC)c(OC)c1)c1ccccc1OCC(=O)NCCCCCCOc1cccc2c1C(=O)N(C1CCC(=O)NC1=O)C2=O)c1cc(OC)c(OC)c(OC)c1 (stereo partly shown) [FC1]
[1]
  concentration sustaining cell survival over 24 h: 62.5 nM
[1]; 31.25nM
  Live cells (%PI negative) after TNF+911+zVAD: 75.8 and 59.7 and 66 and 51.4
[1]; 62.5nM
  Live cells (%PI negative) after TNF+911+zVAD: 81.5 and 75.5 and 67.7 and 62.5
[1]; 250nM
  Live cells (%PI negative) after TNF+911+zVAD: 83.3 and 81.2 and 68.1 and 65
[1]; 500nM
  Live cells (%PI negative) after TNF+911+zVAD: 83.3 and 81.7 and 67.1 and 65
[1]; 1000nM
  Live cells (%PI negative) after TNF+911+zVAD: 81 and 84.9 and 67.9 and 54.3
wild-type HT29 cells; TNF+SM+IDN
  viable cells (PI exclusion): 8.5 and 5.7 and 7.1
wild-type HT29 cells; Untreated (no death stimulus)
  viable cells (PI exclusion): 77.5 and 79.3 and 78.7
Murine MLKL-FKBP^F36V
  degradation of murine MLKL-FKBP^F36V: comparable degradation
[2]; 3.9nM PROTAC
  Blank corrected (470-80) luminescence: 74602 and 77149 and 76062 and 81411
[2]; 7.8nM PROTAC
  Blank corrected (470-80) luminescence: 59479 and 62985 and 66400
[2]; 31.25nM PROTAC
  Blank corrected (470-80) luminescence: 36339 and 35562 and 38426
[2]; 62.5nM PROTAC
  Blank corrected (470-80) luminescence: 25282 and 26898 and 23798 and 25010
[2]; 62.5nM
  Blank corrected (470-80): 88170.7 and 89328.7 and 91847.7 and 71716.7
[2]; 250nM PROTAC
  Blank corrected (470-80) luminescence: 11621 and 12159 and 11550
[2]; 250nM
  Blank corrected (470-80): 43826.7 and 54015.7 and 43806.7 and 52617.7
[2]; 500nM PROTAC, 5h
  Blank corrected (470-80) luminescence: 14990 and 16286 and 14132
[2]; 500nM PROTAC, 8h
  Blank corrected (470-80) luminescence: 14691 and 12990 and 15151
[2]; 500nM PROTAC, 24h
  Blank corrected (470-80) luminescence: 19581 and 16848 and 19949 and 18475
[2]; 500nM PROTAC
  Blank corrected (470-80) luminescence: 10379 and 10950 and 11612
[2]; 500nM
  Blank corrected (470-80): 41968.7 and 40671.7 and 43532.7 and 41295.7
[2]; 1uM PROTAC
  Blank corrected (470-80) luminescence: 13507 and 14074 and 13991 and 15263
[2]; 1uM
  Blank corrected (470-80): 51312.7 and 60071.7 and 47699.7 and 53692.7
[2]; DMSO (control) co-treatment
  Blank corrected Raw Data (470-80): 8854 and 8375 and 8376 and 8057
[2]; co-treatment with MG132 (10uM)
  Blank corrected Raw Data (470-80): 80455 and 95513 and 84222 and 82486
[3]; MLKL-/- + MLKL, 3.9nM
  Live cells (%PI negative) after TNF+911+zVAD: 6.9 and 6.6 and 8.9 and 5.1
[3]; MLKL-/- + MLKL, 7.8nM
  Live cells (%PI negative) after TNF+911+zVAD: 6.1 and 5.8 and 8.5 and 4.8
[3]; MLKL-/- + MLKL, 31.25nM
  Live cells (%PI negative) after TNF+911+zVAD: 5.7 and 5.5 and 8.3 and 4.7
[3]; MLKL-/- + MLKL, 62.5nM
  Live cells (%PI negative) after TNF+911+zVAD: 6.6 and 6 and 9 and 4.5
Fibrillarin-FKBP^F36V
  Dmax (densitometry): ~ 70%
[4]; 5, 24 or 48 h
  time up to which degradation was seen, degrader left in the medium: up to 48 h
[4]
  time up to which degradation was maintained, degrader removed at 5 h: up to 48 h

## Cc1ncsc1-c1ccc(CNC(=O)[C@@H]2C[C@@H](O)CN2C(=O)[C@@H](NC(=O)C2(C#N)CC2)C(C)(C)C)c(OCCOCCOCCOCCCCCCCl)c1 [HV2]
[5]
  TNF+911+zVAD (PI exclusion): 75.3 and 62.1 and 72
  concentration required to maintain cell survival: 125 nM
[5]; MLKL-/- + MLKL HALO, TNF+911+zVAD, degrader 3.9nM, replicate columns
  TNF+911+zVAD (PI exclusion): 6.8 and 4 and 7.3
[5]; MLKL-/- + MLKL HALO, TNF+911+zVAD, degrader 7.8nM, replicate columns
  TNF+911+zVAD (PI exclusion): 6.9 and 4.5 and 9.3
[5]; MLKL-/- + MLKL HALO, TNF+911+zVAD, degrader 31.25nM, replicate columns
  TNF+911+zVAD (PI exclusion): 33 and 22.8 and 23.9
[5]; MLKL-/- + MLKL HALO, TNF+911+zVAD, degrader 62.5nM, replicate columns
  TNF+911+zVAD (PI exclusion): 77 and 48.6 and 62.6
[5]; MLKL-/- + MLKL HALO, TNF+911+zVAD, degrader 250nM, replicate columns
  TNF+911+zVAD (PI exclusion): 88.6 and 71.9 and 68.6
[5]; MLKL-/- + MLKL HALO, TNF+911+zVAD, degrader 500nM, replicate columns
  TNF+911+zVAD (PI exclusion): 85.7 and 70.1 and 67.1
[5]; MLKL-/- + MLKL HALO, TNF+911+zVAD, degrader 1000nM, replicate columns
  TNF+911+zVAD (PI exclusion): 77.8 and 71.5 and 66.8
wild-type HT29 cells; TNF+SM+IDN
  viable cells (PI exclusion): 9.6 and 6.1 and 6.3
wild-type HT29 cells; Untreated (no death stimulus)
  viable cells (PI exclusion): 75.8 and 75.3 and 68.5
Fibrillarin-Halo
  Dmax (densitometry): ~ 94.8%
[2]; 3.9nM PROTAC
  Blank corrected (470-80) luminescence: 79470 and 68951 and 78183 and 76420
[2]; 7.8nM PROTAC
  Blank corrected (470-80) luminescence: 72797 and 64329 and 67516 and 60174
[2]; 31.25nM PROTAC
  Blank corrected (470-80) luminescence: 46917 and 44939 and 48832 and 45085
[2]; 62.5nM PROTAC
  Blank corrected (470-80) luminescence: 40512 and 37700 and 38124 and 40329
[2]; 250nM PROTAC
  Blank corrected (470-80) luminescence: 30717 and 30890 and 31914 and 28801
[2]; 500nM PROTAC, 5h
  Blank corrected (470-80) luminescence: 69924 and 50626 and 73472 and 59650
[2]; 500nM PROTAC, 8h
  Blank corrected (470-80) luminescence: 70698 and 62420 and 68286 and 57616
[2]; 500nM PROTAC, 24h
  Blank corrected (470-80) luminescence: 56615 and 44142 and 53902 and 55861
[2]; 500nM PROTAC
  Blank corrected (470-80) luminescence: 27860 and 28299 and 29718 and 30521
[2]; 1uM PROTAC
  Blank corrected (470-80) luminescence: 27861 and 28948 and 28638 and 31530
[2]; DMSO (control) co-treatment
  Blank corrected Raw Data (470-80): 30990 and 24165 and 26494 and 23014
[2]; co-treatment with MG132 (10uM)
  Blank corrected Raw Data (470-80): 55749 and 70265 and 64908 and 78527
[3]
  TNF+911+zVAD (PI exclusion): 6.7 and 3.6 and 5.5
[3]; MLKL-/- + MLKL, TNF+911+zVAD, degrader 3.9nM, replicate columns
  TNF+911+zVAD (PI exclusion): 7.3 and 3.4 and 6.6
[3]; MLKL-/- + MLKL, TNF+911+zVAD, degrader 7.8nM, replicate columns
  TNF+911+zVAD (PI exclusion): 7.3 and 4.5 and 5.7
[3]; MLKL-/- + MLKL, TNF+911+zVAD, degrader 31.25nM, replicate columns
  TNF+911+zVAD (PI exclusion): 9.7 and 4.3 and 5.6
[3]; MLKL-/- + MLKL, TNF+911+zVAD, degrader 62.5nM, replicate columns
  TNF+911+zVAD (PI exclusion): 7.8 and 3.5 and 5.8
[3]; MLKL-/- + MLKL, TNF+911+zVAD, degrader 250nM, replicate columns
  TNF+911+zVAD (PI exclusion): 6.5 and 3.9 and 5.8
[3]; MLKL-/- + MLKL, TNF+911+zVAD, degrader 500nM, replicate columns
  TNF+911+zVAD (PI exclusion): 8.6 and 4.3 and 7.2
[3]; MLKL-/- + MLKL, TNF+911+zVAD, degrader 1000nM, replicate columns
  TNF+911+zVAD (PI exclusion): 8.3 and 4 and 5.4
[4]
  time up to which degradation was maintained, degrader removed at 5 h: depletion not maintained

## CO[C@H]1C[C@@H]2CC[C@@H](C)[C@@](O)(O2)C(=O)C(=O)N2CCCC[C@H]2C(=O)O[C@H]([C@H](C)C[C@@H]2CC[C@@H](OCCOCc3cn(CCOCCOCCNc4cccc5c4C(=O)N(C4CCC(=O)NC4=O)C5=O)nn3)[C@H](OC)C2)CC(=O)[C@H](C)/C=C(/C)[C@@H](O)[C@@H](OC)C(=O)[C@H](C)C[C@H](C)\C=C/C=C\C=C/1C (stereo partly shown) [RC32]
[6]
  depletion of substrates in animals: efficient depletion of substrates
  tolerability in animals: well tolerated

Source: PMC9019100, “Development of NanoLuc-targeting protein degraders and a universal reporter system to benchmark tag-targeted degradation platforms” (Nature Communications, 2022)
